The subject of series [1] is lower limb muscles (GAS, SOL, EDL, TA). Kind of series: Observation of lower limb muscles of mice administered with farnesol. It is filed as in vivo, mouse. The note with it: mice fed with farnesol for 5 weeks. As for the experimental part: 5 month-old C57BL/6 male mice (weighing 22 g) are maintained at a temperature of 22±2° C., humidity of 55±5%, and a light-dark cycle of 12:12 hours. An animal feed containing 0.5% w/w farnesol was supplied by Jung-Ang Lab Animal Inc. A control group is fed with a feed equivalent to a general feed for experimental animals, excluding that no 0.5% w/w farnesol is contained. They are allowed free access to drinking water. Skeletal muscles were separated from the mice and control mouse fed with farnesol for 5 weeks, and subjected to immunoblot analysis. In all the following Examples, administration or feeding of mouse is performed as above, unless otherwise mentioned. […] In this specification, assuming that human life expectancy of 100 years corresponds to mouse life expectancy of 3 years, human life expectancy is estimated from the relationship. […] Herein, GAS indicates gastrocnemius muscle, SOL indicates soleus muscle, EDL indicates extensor digitorum longus muscle, and TA indicates tibialis anterior muscle. Gastrocnemius muscle exists as a white muscle because glycolytic muscle fibers are mainly distributed therein.

Series [2] in a line: GA muscle mass, lean mass and heart mass of mice according to farnesol administration. The series is classed as in vivo, mouse. As for the experimental part: 22-month-old female mice (weighing 30 g) are fed with a control diet and a farnesol diet for 4 months. That is, 22-month-old mice are fed for 4 months, and then 26-month-old mice are analyzed.
Setting [3] is: old animal, farnesol diet 4 months.

With `CC(C)=CCC/C(C)=C/CC/C(C)=C/CO` [farnesol, (2E,6E)-3,7,11-trimethyldodeca-2,6,10-trien-1-ol], the “muscle fibers of gastrocnemius, soleus, extensor digitorum longus and tibialis anterior muscle (appearance)” value in series [1] is “converted to red muscles having a high percentage of oxidative muscle fibers”. Besides, in series [2] (setting [3]), the GA muscle mass came to 0.099 g, the “heart mass (versus control old animal)” value amounted to 0.156 g and the lean mass stood at 15.3 g. Moreover, the “side effects such as muscular hypertrophy” value in series [2] (old animals, farnesol diet 4 months) was “does not cause side effects such as muscular hypertrophy”. Also, the “heart mass (versus control young animal)” value in series [2] (printed as farnesol old animal, compared with control young animal) came to 0.115 g.

(Values after US10780061B2, “Composition comprising farnesol and use thereof” (Daegu Gyongbuk Institute of Science and Technology, priority 2014, dated 2020).)
